Source: patent US20050106262A1, “Pharmaceutical composition comprising arsenite for the treatment of malignancy” (Korea Microbiological Laboratories, Ltd., priority 2002, published 2005)

Experiments:
Ehrlich ascites tumour = settings: cited from earlier work
MXAF401NL = experiment: modified propidium iodide cytotoxicity assay, mammary tumour cell line; type: cell-based, human; settings: 4 days of incubation
Experimental: (§1) Various human tumor cells were grown at 37° C. in a humidified atmosphere (95% air, 5% CO2) in monolayer cultures in RPMI 1640 medium with phenol red (Life Technologies, Karlsruhe, Germany) supplemented with 10% fetal calf serum. Cells were trypsinized and maintained weekly.
(§2) A modified propidium iodide assay (based on W. A. Dengler et. al, Anti-Cancer Drugs, 6, pp. 522-532 (1995)) was used to examine the antiproliferative activity of the study compounds. Briefly, cells will be harvested from exponential phase cultures growing in RPMI 1640 medium supplemented with 10% fetal calf serum by trypsination, counted and plated in 96 well flat-bottomed microtiter plates (140 μl cell suspension, 8×10^4 cells/ml). […] After thawing of the plates, fluorescence was measured using a Millipore Cytofluor 2350-microplate reader (excitation 530 nm, emission 620 nm) in order to quantify the total cell number. […]
(§3) Growth inhibition is expressed as Treated/Control×100 (or T/C %). IC50 and IC70 values were determined by plotting compound concentration versus cell number. Mean IC50 and IC70 values were calculated according to the formula: [formula]
(§4) With x=specific tumor cell line and n=total number of cell lines studied. If IC50 or IC70 could not be determined within the examined dose range, the lowest or highest concentration studied was used for the calculation.

DLD1 = experiment: modified propidium iodide cytotoxicity assay, colon tumour cell line; type: cell-based, human; settings: Colon tumour cell line DLD1, 4 days of incubation
Experimental: as §1, §2, §3, §4

PC3 = experiment: modified propidium iodide cytotoxicity assay, prostate tumour cell line; type: cell-based, human; settings: Prostate tumour cell line PC3, 4 days of incubation
Experimental: as §1, §2, §3, §4

RXF486L = experiment: modified propidium iodide cytotoxicity assay, renal tumour cell line; type: cell-based, human; settings: 4 days of incubation
Experimental: as §1, §2, §3, §4

promyelocytic leukaemia = experiment: modified propidium iodide cytotoxicity assay, promyelocytic leukaemia (comparison); type: cell-based, human
Experimental: as §1, §2, §3, §4

OVCAR3 = experiment: modified propidium iodide cytotoxicity assay, ovarian tumour cell line; type: cell-based, human; settings: Ovarian tumour cell line OVCAR3, 4 days of incubation
Experimental: as §1, §2, §3, §4

GXF251L = experiment: modified propidium iodide cytotoxicity assay, gastric tumour cell line; type: cell-based, human; settings: 4 days of incubation
Experimental: as §1, §2, §3, §4

Row | Substance | effect on tumour growth (Ehrlich ascites tumour) | IC70 (MXAF401NL) [µg/mL] | IC70 (DLD1) [µg/mL] | IC70 (PC3) [µg/mL] | IC70 (RXF486L) [µg/mL] | IC70 (promyelocytic leukaemia; promyelocytic leukaemia, comparison) [µg/mL] | sensitivity of the Table I tumour cells relative to promyelocytic leukaemia (promyelocytic leukaemia; ratio of IC70 values, solid tumour cells versus promyelocytic leukaemia) [times] | IC70 (OVCAR3) [µg/mL] | IC70 (GXF251L) [µg/mL]
1 | Potassium arsenite | affected only the growth of Ehrlich ascites tumour | – | – | – | – | – | – | – | –
2 | salt of meta-arsenite (AsO2^−) [meta-arsenite compound] | – | 0.32 | 0.48 | 0.85 | 0.63 | 6.82 | 2 to 20 | 3.02 | 3.08
